Source: patent publication US20250375526A1, “IRAK DEGRADERS AND USES THEREOF” (Kymera Therapeutics, Inc., priority 2020, published 2025)

Molecular target: T1, IRAK4 (Homo sapiens, UniProt Q9NWZ3)
T1 construct: endogenous in cells; host or cells: OCI-Ly10
T1 sequence (Q9NWZ3 1-460): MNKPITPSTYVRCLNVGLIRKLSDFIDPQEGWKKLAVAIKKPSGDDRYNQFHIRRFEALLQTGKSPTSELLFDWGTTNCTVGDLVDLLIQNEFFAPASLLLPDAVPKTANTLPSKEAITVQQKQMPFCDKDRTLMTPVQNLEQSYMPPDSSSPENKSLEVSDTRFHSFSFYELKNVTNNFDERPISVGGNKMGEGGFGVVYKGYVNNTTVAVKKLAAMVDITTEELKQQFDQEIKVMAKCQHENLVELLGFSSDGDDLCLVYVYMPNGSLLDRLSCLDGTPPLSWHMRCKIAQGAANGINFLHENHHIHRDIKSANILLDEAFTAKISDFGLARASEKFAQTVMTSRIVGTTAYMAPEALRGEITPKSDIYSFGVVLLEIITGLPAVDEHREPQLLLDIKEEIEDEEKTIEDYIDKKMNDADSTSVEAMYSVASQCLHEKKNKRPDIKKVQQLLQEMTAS
Assay: OCI-LY10 IRAK MSD assay DC50 (IRAK4 degradation)
Assay type: cell-based
Conditions: OCI-Ly10 cells, incubated for 4 hr, concentration of compound required to degrade 50% of protein
Procedure: A MSD assay is run to determine the concentration of compound required to degrade 50% of protein (DC50).
• Compounds were reconstituted to 10 mM in stock solutions. The stock solutions were diluted to 5 mM and 45 μL of each dilution was transferred to a 384 pp-plate. A 3 fold, 8-point serial dilution was performed by transferring 15 μL of compound into 30 μL DMSO using Janus. • 20 nL of each compound were added into each well of a 96-well plate (Corning3799). • OCI-Ly10 cells were seeded into the 96-well plate at 3.0*10e^5 cells/100 μL/well. • The cell plate was shaken at 720 rpm for 5 min and incubated for 4 hr. • 100 μL of cells were transferred into the 96-PCR plate and spun down at high speed for 5 mins. • The supernatant was discarded and 100 μL of RIPA lysis buffer with proteinase inhibitors was added per well. The plate was then sealed and shaken at 600 rpm and 4° C. for about 20 min. • The plate was then spun down at high speed (about 3200 g) for 30 min and then frozen in a −80° C. fridge. • A bare MSD plate (L15XA-3) was coated with 2 μg/mL of capture antibody (mouse Anti-IRAK4 antibody [2H9], ab119942) in PBS to 40 μL/well and incubated overnight at 4° C.
• The MSD coated plate was washed 3× (150 μL/well) with 1×TBST (CST #9997S). • The MSD plate was then blocked with 150 μL of blocking buffer [3% Blocker A (MSD, R93BA-4) in TBST]/well and shaken for 1 hr at RT and 600 rpm. • The MSD plate was washed 3× (150 μL/well) with 1×TBST. The sample RIPA lysates were then added to the MSD plate (50 μL/well) and shaken for 1 hr at RT and 600 rpm. • The MSD plate was washed 3× (150 μL/well) with 1×TBST and the primary detection antibody (Rabbit Anti-IRAK4 antibody [Y279], ab32511) was added to a final concentration of 1 μg/ml with 25 μL/well. The plate was then shaken for 1 hr at RT and 600 rpm. • The MSD plate was washed 3× (150 μL/well) with 1×TBST and the secondary detection antibody, SULFO-TAG anti-species antibody (Anti Rabbit Antibody (R32AB-5) MSD, R32AB-1) was added to a volume of 25 μL/well at a final concentration of 1 μg/ml. The plate was then shaken for 1 hr at RT and 600 rpm. • The MSD plate was then washed 3× (150 μL/well) with 1×TBST. • 1×MSD reading buffer was then added (150 μL/well) and the plate […].
(MSD, R92TC-2) • The MSD instrument was then read.
The remaining activity was calculated following the formula below:
• The DC50 was calculated by fitting the Curve using Xlfit (v5.3.1.3), equation 201: […]
The letter codes for IRAK4 DC50 indicate the concentration of compound required to degrade 50% of protein: A (<0.01 μM), B (0.01-0.1 μM), C (>0.1-0.2 μM), D (>0.2 μM).

| Compound | DC50 [nM] |
| --- | --- |
| N#Cc1cnc2c(C(=O)Nc3ccc4nn([C@H]5CC[C@H](CN6CCC(c7cccn8c(N9CCC(=O)NC9=O)cnc78)CC6)CC5)cc4c3)cnn2c1 [I-65, 6-Cyano-N-[2-[4-[[4-[3-(2,4-dioxohexahydropyrimidin-1-yl)imidazo[1,2-a]pyridin-8-yl]-1-piperidyl]methyl]cyclohexyl]indazol-5-yl]pyrazolo[1,5-a]pyrimidine-3-carboxamide] | 10 to 100 |
| C[C@H]1CN(C[C@H]2C[C@H](n3cc(NC(=O)c4cnn5ccc(N6C[C@H]7C[C@@H]6CO7)nc45)c(C(F)F)n3)C2)CC[C@@H]1OCC#Cc1ccn2c(N3CCC(=O)NC3=O)cnc2c1 [I-59] | < 10 |
| COc1cc2nc([C@H]3CC[C@H](CN4CCC(c5cc(OC)c6ncc(N7CCC(=O)NC7=O)n6c5)CC4)CC3)sc2cc1NC(=O)c1cccc(C(F)(F)F)n1 [I-58] | > 200 |
| O=C1CCN(c2cnc3cc(C4CCN(C[C@H]5C[C@H](n6cc7cc(NC(=O)c8cccc(C(F)(F)F)n8)ccc7n6)C5)CC4)ccn23)C(=O)N1 [I-85] | > 200 |
| O=C1CCN(c2cnc3cc(C#CCO[C@H]4CCN(C[C@H]5CC[C@H](n6cc(NC(=O)c7cnn8ccc(N9C[C@H]%10C[C@@H]9CO%10)nc78)c(C(F)F)n6)CC5)C[C@H]4F)ccn23)C(=O)N1 [I-71] | < 10 |
| COc1cc2nc([C@H]3CC[C@H](CN4CCN(c5ccn6c(N7CCC(=O)NC7=O)cnc6c5C)CC4)CC3)sc2cc1NC(=O)c1cccc(C(F)(F)F)n1 [I-50] | 10 to 100 |
| COc1cc2nn([C@H]3CC[C@H](CN4C[C@@H]5C[C@H]4CN5c4cccn5c(N6CCC(=O)NC6=O)cnc45)CC3)cc2cc1NC(=O)c1cccc(C(F)(F)F)n1 [I-54] | 10 to 100 |
| CC(C)Nc1cc(-c2ccc3cc(C#N)cnn23)ncc1C(=O)N[C@H]1CC[C@H](CN2CCC(c3cccn4c(N5CCC(=O)NC5=O)cnc34)CC2)CC1 [I-73] | 10 to 100 |
| C[C@H]1CN(C[C@H]2CC[C@H](n3cc(NC(=O)c4cnn5ccc(N6C[C@H]7C[C@@H]6CO7)nc45)c(C(F)F)n3)CC2)CC[C@@H]1OCC#Cc1ccn2c(N3CCC(=O)NC3=O)cnc2c1 [I-63] | < 10 |
| COc1cc2nc([C@H]3CC[C@H](CN4CCN(c5ccn6c(N7CCC(=O)NC7=O)cnc6c5OC)CC4)CC3)sc2cc1NC(=O)c1cccc(C(F)(F)F)n1 [I-48] | 10 to 100 |
| COc1cc2nn([C@H]3CC[C@H](CN4C[C@H]5C[C@@H]4CN5c4ccn5c(N6CCC(=O)NC6=O)cnc5c4)CC3)cc2cc1NC(=O)c1cccc(C(F)(F)F)n1 [I-56] | 10 to 100 |
| COc1cc2nn([C@H]3CC[C@H](CN4C5CCC4CN(c4ccn6c(N7CCC(=O)NC7=O)cnc6c4)C5)CC3)cc2cc1NC(=O)c1cccc(C(F)(F)F)n1 [I-45] | 10 to 100 |
| COc1cc2nc([C@H]3CC[C@H](CN4CCC(c5cccn6c(N7CCC(=O)NC7=O)cnc56)CC4)CC3)sc2cc1NC(=O)c1cccc(C(F)(F)F)n1 [I-79] | < 10 |
| COc1cc2nc([C@H]3CC[C@H](CN4CCC(c5ccn6c(N7CCC(=O)NC7=O)cnc6c5)CC4)CC3)sc2cc1NC(=O)c1cccc(C(F)(F)F)n1 [I-78] | 10 to 100 |
| COc1cc2nn([C@H]3CC[C@H](CN4CCC(c5ccn6c(N7CCC(=O)NC7=O)cnc6c5)CC4)CC3)cc2cc1NC(=O)c1cccc(C(F)(F)F)n1 [I-36, N-[2-[4-[[4-[3-(2,4-dioxohexahydropyrimidin-1-yl)imidazo[1,2-a]pyridin-7-yl]-1-piperidyl]methyl]cyclohexyl]-6-methoxy-indazol-5-yl]-6-(trifluoromethyl)pyridine-2-carboxamide] | < 10 |
| COc1cc2nn([C@H]3CC[C@H](CN4CCC(c5ccn6c(N7CCC(=O)NC7=O)cnc6c5)CC4)CC3)cc2cc1NC(=O)c1cc(F)cc(C(F)(F)F)c1 [I-81] | 10 to 100 |
| CC(C)Nc1cc(-n2ccc3cc(C#N)cnc32)ncc1C(=O)N[C@H]1CC[C@H](CN2CCC(c3ccn4c(N5CCC(=O)NC5=O)cnc4c3)CC2)CC1 [I-77] | 10 to 100 |
| O=C1CCN(c2cnc3c(C#CCN4CCN(C[C@H]5CC[C@H](n6cc(NC(=O)c7cnn8ccc(N9C[C@H]%10C[C@@H]9CO%10)nc78)c(C(F)F)n6)CC5)CC4)cccn23)C(=O)N1 [I-60] | < 10 |
| O=C1CCN(c2cnc3cc(C#CCO[C@@H]4CCN(C[C@H]5CC[C@H](n6cc(NC(=O)c7cnn8ccc(N9C[C@H]%10C[C@@H]9CO%10)nc78)c(C(F)F)n6)CC5)C[C@@H]4F)ccn23)C(=O)N1 [I-70] | < 10 |
| COc1cc2nn([C@H]3CC[C@H](CN4C[C@@H]5C[C@H]4CN5c4ccn5c(N6CCC(=O)NC6=O)cnc5c4)CC3)cc2cc1NC(=O)c1cccc(C(F)(F)F)n1 [I-52] | 10 to 100 |
| C[C@H]1CN(C[C@H]2CC[C@H](n3cc(NC(=O)c4cnn5ccc(N6C[C@H]7C[C@@H]6CO7)nc45)c(C(F)F)n3)CC2)CC[C@@H]1OCC#Cc1cccn2c(N3CCC(=O)NC3=O)cnc12 [I-61] | < 10 |

Next, values leading:

| DC50 [nM] | Compound |
| --- | --- |
| > 200 | O=C1CCN(c2cnc3cc(C4CCN(C[C@H]5CC[C@H](n6cc7cc(NC(=O)c8cccc(C(F)(F)F)n8)ncc7n6)CC5)CC4)ccn23)C(=O)N1 [I-37] |
| < 10 | CN(C[C@H]1CC[C@H](n2cc3cc(NC(=O)c4cccc(C(F)(F)F)n4)ccc3n2)CC1)C1CCN(c2ccn3c(N4CCC(=O)NC4=O)cnc3c2)CC1 [I-35] |
| 10 to 100 | COc1cc2nn([C@H]3CC[C@H](CN(C)C4CCN(c5cccn6c(N7CCC(=O)NC7=O)cnc56)CC4)CC3)cc2cc1NC(=O)c1cc(F)cc(C(F)(F)F)c1 [I-43] |
| < 10 | N#Cc1cc2nn([C@H]3CC[C@H](CN4CCC(c5cccn6c(N7CCC(=O)NC7=O)cnc56)CC4)CC3)cc2cc1NC(=O)c1cccc(C(F)(F)F)n1 [I-67] |
| < 10 | CN(C[C@H]1CC[C@H](n2cc3cc(NC(=O)c4cccc(C(F)(F)F)n4)ncc3n2)CC1)C1CCN(c2ccn3c(N4CCC(=O)NC4=O)cnc3c2)CC1 [I-33] |
| < 10 | COc1cc2nn([C@H]3CC[C@H](CN4C5CCC4CN(c4cccn6c(N7CCC(=O)NC7=O)cnc46)C5)CC3)cc2cc1NC(=O)c1cccc(C(F)(F)F)n1 [I-53] |
| > 200 | COc1cc2nn([C@H]3CC[C@H](CN(C)C4CCN(c5cccn6c(N7CCC(=O)NC7=O)cnc56)CC4)CC3)cc2cc1NC(=O)c1cncc(Cl)c1 [I-88] |
| 10 to 100 | COc1cc2nn([C@H]3CC[C@H](CN4CCCN(c5cccn6c(N7CCC(=O)NC7=O)cnc56)CC4)CC3)cc2cc1NC(=O)c1cccc(C(F)(F)F)n1 [I-47] |
| 10 to 100 | CN(C[C@H]1CC[C@H](n2cc3cc(NC(=O)c4cccc(C(F)(F)F)n4)ccc3n2)CC1)C1CCN(c2ccc3c(N4CCC(=O)NC4=O)cncc3c2)CC1 [I-19] |
| 100 to 200 | CN(C[C@H]1CC[C@H](n2cc3cc(NC(=O)c4cccc(C(F)(F)F)n4)ncc3n2)CC1)C1CCN(c2cccn3c(N4CCC(=O)NC4=O)cnc23)CC1 [I-30] |
| 10 to 100 | COc1cc2nc([C@H]3CC[C@H](CN(C)C4CCN(c5cccn6c(N7CCC(=O)NC7=O)cnc56)CC4)CC3)sc2cc1NC(=O)c1cccc(C(F)(F)F)n1 [I-44] |
| > 200 | O=C1CCN(c2cnc3c(C4CCN(C[C@H]5CC[C@H](n6cc7cc(NC(=O)c8cccc(C(F)(F)F)n8)ccc7n6)CC5)CC4)cccn23)C(=O)N1 [I-28] |
| > 200 | CN(C[C@H]1CC[C@H](n2cc3cc(NC(=O)c4cccc(C(F)(F)F)n4)ccc3n2)CC1)C1CCN(c2cccn3c(N4CCC(=O)NC4=O)cnc23)CC1 [I-27] |
| < 10 | COc1cc2nn([C@H]3CC[C@H](CN4CCN(c5cccn6c(N7CCC(=O)NC7=O)cnc56)CC4)CC3)cc2cc1NC(=O)c1cccc(C(F)(F)F)n1 [I-69] |
